Results reported in US10111843B2, “Methods for treating brain injury” (HOUGH EAR INSTITUTE, priority 2011, dated 2018).

How the values were obtained:
[1] = blood-brain barrier permeability by contrast-enhanced T1-weighted MRI; assay type: in vivo, rat; details: given as 300 mg/kg NAC plus 300 mg/kg HPN-07 i.p., MRI seven days after initial drug administration
Method: Male Long-Evans pigmented rats (with body weights between 360 and 400 g, Harlan Laboratories, Indianapolis, Ind.) were injected intraperitoneally with a combination of 300 mg/kg of NAC plus 300 mg/kg of HPN-07, which were both dissolved in 5 ml/kg of physiological saline solution. […] Drug or saline was administered once on the first day and then twice a day for the following two days.
Seven days after the initial drug administration magnetic resonance imaging (MRI) was used to detect the disruption of the blood-brain barrier (BBB). Contrast enhancement noted on post-contrast T1-weighted MRI after injection of contrast agent (Magnevist=GdDTPA) is indicative of blood-brain barrier disruption. The hyper intensity on the T1-weighted images is resulting from leakage of the gadolinium based contrast agent injected at the baseline.
The MRI parameters and image scale factor were kept constant for all T1-weighted images. The images were evaluated both visually and by region-of-interest (ROI) measurement. ROT measurements were obtained at the time-points (before and after injection of contrast material on T1-weighted images) brain.

doublecortin = doublecortin immunostaining of hippocampus and entorhinal cortex after noise exposure; assay type: in vivo, chinchilla; details: for level of doublecortin staining in the entorhinal cortex: HPN-07 300 mg/kg i.p.
Method: In this Example, three-5 year old chinchilla were freedom divided into 3 groups (6 chinchilla at each time point in each group). Chinchilla in noise exposure and noise plus treatment groups were exposed to 105 dB SPL Octave band noise centered at 4 kHz for 6 hours. Chinchilla in the noise plus treatment group were received HPN-07 treatment (300 mg/kg, i.p) started 4 hours after noise exposure, and then twice a day for the following 2 days. Chinchilla in the normal control and the noise exposed only groups were received carrier solutions (i.p.). Chinchilla were euthanized and perfused with 4% paraformaldehyde in PBS 21 days and 6 months after noise exposure. Brains were dissected out and post-fixed in the fixative for one week. The brains were Cryosected at 30 μm. Goat anti-doublecortin (1:100) was used to label neural precursor cells. Images were taken from CA1 regions of hippocampus and the entorhinal cortex with a light microscope. Doublecortin staining reflects neurogenerosis in the brain after neuron damage and death after noise exposure.

[2] = stated as known; cited from earlier work

Row | Compound | blood-brain barrier permeability (% change in ROI signal intensity after Magnevist) [1] | blood-brain barrier permeability (% change in ROI signal intensity after Magnevist) ([1]; listed as 2,4-disulfonyl PBN) | level of doublecortin staining in the entorhinal cortex (doublecortin; 6 months post noise exposure) | density of doublecortin staining in the hippocampus (doublecortin; 6 months post noise exposure, HPN-07 300 mg/kg i.p. from 4 hours after noise) | level of doublecortin staining in the entorhinal cortex (doublecortin; 21 days post noise exposure) | blood-brain barrier permeability [2]
1 | 2,4-disulfonyl α-phenyl tertiary butyl nitrone [HPN-07] | effectively increases blood-brain barrier permeability | unexpectedly increases blood brain permeability | decreases the level of doubtecortin staining | comparable to the control subjects | decreases the level of doubtecortin staining | 
2 | CC(=O)N[C@@H](CS)C(=O)O [NAC, N-acetylcysteine] |  |  |  |  |  | known to not increase blood-brain barrier permeability
